Reference: patent US20040002842A1, “Methods and systems for analyzing complex biological systems” (priority 2001, published 2004)
Entries after “also recorded” stand apart in the source; their conditions may differ.

Key:
[1] = tested on: Arabidopsis thaliana plants; test: SOA1 phenotypic analysis of herbicide-treated plants (incl. MIC/Tmic); format: in vivo; conditions: for leafCurling, Dev. / leafTwisting, Dev. / leafWidth, Dev. / matureLeafAnthocyanins, Dev. / matureLeafChlorosis, Dev. / matureLeafNecrosis, Dev. / newLeafAnthocyanins, Dev. / newLeafChlorosis, Dev. / newLeafNecrosis, Dev. / pointedLeaves, Dev.: herbicide sprayed on 21-day plants, numeric value standardized to mock treated; for tMic, Dev.: score for time to full symptoms at minimum inhibitory concentration; for characteristic symptoms (morphological phenotype): herbicide-treated plants
Arabidopsis thaliana [2] = test: MOA1 gene expression profiling (22,000 gene array); conditions: 1 hr; for Regulated Genes Following Herbicide Treatment: Down / Regulated Genes Following Herbicide Treatment: Up: p < 0.5; for No. of Lethal Genes Altered: regulated genes compared to list of essential (lethal) genes
Arabidopsis thaliana [3] = test: MOA1 biochemical (metabolite) profiling by LC-MS and GC-MS; conditions: for stress related metabolites: within one hour after spraying
Magnaporthe grisea = format: cell-based
Arabidopsis plants = conditions: nitrate addition to N-starved plants; cited from earlier work

SMILES | leafCurling, Dev. [1] | leafTwisting, Dev. [1] | leafWidth, Dev. [1] | matureLeafAnthocyanins, Dev. [1] | matureLeafChlorosis, Dev. [1] | matureLeafNecrosis, Dev. [1] | newLeafAnthocyanins, Dev. [1] | newLeafChlorosis, Dev. [1] | newLeafNecrosis, Dev. [1] | pointedLeaves, Dev. [1] | tMic, Dev. [1] | characteristic symptoms (morphological phenotype) [1] | further results
O=C(O)COc1ccc(Cl)cc1Cl [2,4-D] | 1 | 2 | −1 | 1 | 2 | 0 | 0 | 1 | 0 | 0 | 2 | – | Symptom Class ([1]; phenotype class of three-week-old treated plants (FIG. 12)): 5
O=C(O)c1cc(Oc2ccc(C(F)(F)F)cc2Cl)ccc1[N+](=O)[O-] [Acifluorfen] | – | – | – | – | – | – | – | – | – | – | – | Necrotic leaf flecks | –
Nc1nc[nH]n1 [Amitrole] | – | – | – | – | – | – | – | – | – | – | – | leaf bleaching and leaf enlargement | –
COC(=O)NS(=O)(=O)c1ccc(N)cc1 [Asulam] | – | – | – | – | – | – | – | – | – | – | – | – | Regulated Genes Following Herbicide Treatment: Down (Arabidopsis thaliana [2]): 7; Regulated Genes Following Herbicide Treatment: Up (Arabidopsis thaliana [2]): 80; No. of Lethal Genes Altered (Arabidopsis thaliana [2]): 5
CCNc1nc(Cl)nc(NC(C)C)n1 [Atrazine] | – | – | – | – | – | – | – | – | – | – | – | rapid and widespread leaf necrosis | –
CC(C)N1C(=O)c2ccccc2NS1(=O)=O [Bentazon] | – | – | – | – | – | – | – | – | – | – | – | rapid and widespread leaf necrosis | –
COc1nc(C)nc(NC(=O)NS(=O)(=O)c2ccccc2Cl)n1 [Chlorsulfuron] | – | – | – | – | – | – | – | – | – | – | – | anthocyanin accumulation in the older leaves accompanied by chlorosis of the newly emerging leaves | Regulated Genes Following Herbicide Treatment: Up (Arabidopsis thaliana [2]): 97; No. of Lethal Genes Altered (Arabidopsis thaliana [2]): 8
c1cc[n+]2c(c1)-c1cccc[n+]1CC2 [Diquat] | 2 | 0 | −2 | 0 | 1 | 4 | 0 | 1 | 4 | 1 | 2 | rapid and widespread leaf necrosis | –
CN(C)C(=O)Nc1ccc(Cl)c(Cl)c1 [Diuron] | 1 | 0 | −2 | 0 | 2 | 4 | 0 | 2 | 4 | 1 | 1 | rapid and widespread leaf necrosis | –
CP(=O)(O)CCC(N)C(=O)O (centres unmarked) [Glufosinate] | 2 | 1 | −2 | 0 | 3 | 0 | 0 | 3 | 0 | 1 | 1 | Chlorosis and leaf curling | stress related metabolites (Arabidopsis thaliana [3]): Only a few, if any; Regulated Genes Following Herbicide Treatment: Down (Arabidopsis thaliana [2]): 54; Regulated Genes Following Herbicide Treatment: Up (Arabidopsis thaliana [2]): 296; No. of Lethal Genes Altered (Arabidopsis thaliana [2]): 10; Nitrogen source utilization by M. grisea (Magnaporthe grisea; in the presence of glufosinate): only able to utilize glutamine and glutamate as nitrogen sources
O=C(O)CNCP(=O)(O)O [Glyphosate] | 0 | 0 | 0 | 3 | 1 | 3 | 1 | 2 | 0 | 1 | 2 | anthocyanin accumulation in the older leaves accompanied by chlorosis of the newly emerging leaves | tyrosine level relative to the control (Arabidopsis thaliana [3]; after one hour): decreased; Growth of M. grisea, Tiers 3 and 4 media (Magnaporthe grisea): nearly identical as compared to Unknown 4; also recorded: inhibited growth of M. grisea when nitrate, nitrite, or glutamate was provided as the sole nitrogen source; Growth inhibition of M. grisea (Magnaporthe grisea; glyphosate at 1.0 mg/ml): remediated by inclusion of aromatic amino acids to the media
CC(C)C1(C)N=C(c2ncccc2C(=O)O)NC1=O (centres unmarked) [Imazapyr] | – | – | – | – | – | – | – | – | – | – | – | anthocyanin accumulation in the older leaves accompanied by chlorosis of the newly emerging leaves | stress related metabolites (Arabidopsis thaliana [3]): Only a few, if any
CCc1cnc(C2=NC(C)(C(C)C)C(=O)N2)c(C(=O)O)c1 (centres unmarked) [Imazethapyr] | – | – | – | – | – | – | – | – | – | – | – | anthocyanin accumulation in the older leaves accompanied by chlorosis of the newly emerging leaves | –
CS(=O)(=O)c1cc(C(F)(F)F)ccc1C(=O)c1cnoc1C1CC1 [Isoxaflutole] | – | – | – | – | – | – | – | – | – | – | – | – | Alpha-tocopherol level relative to the control (Arabidopsis thaliana [3]; early time points): not significantly changed; tyrosine and phenylalanine level relative to the control (Arabidopsis thaliana [3]; metabolite data, early time points (1 hr)): up-regulated; also recorded: began to accumulate relative to the control after one hour; alterations in the expression of genes of the homogentisate biosynthetic pathway (Arabidopsis thaliana [2]): not observed; Regulated Genes Following Herbicide Treatment: Down (Arabidopsis thaliana [2]): 370; No. of Lethal Genes Altered (Arabidopsis thaliana [2]): 15; Growth of M. grisea in minimal plus tyrosine and minimal media (Magnaporthe grisea; concentrations insufficient to inhibit growth): inhibited in minimal plus tyrosine media, while growth in minimal media was unaffected
CSc1nnc(C(C)(C)C)c(=O)n1N [Metribuzin] | – | – | – | – | – | – | – | – | – | – | – | rapid and widespread leaf necrosis | –
O=C(O)c1ccccc1C(=O)Nc1cccc2ccccc12 [Naptalam] | – | – | – | – | – | – | – | – | – | – | – | – | Regulated Genes Following Herbicide Treatment: Down (Arabidopsis thaliana [2]): 47; Regulated Genes Following Herbicide Treatment: Up (Arabidopsis thaliana [2]): 50; No. of Lethal Genes Altered (Arabidopsis thaliana [2]): 3
O=[N+]([O-])O [Nitrate, nitrate] | – | – | – | – | – | – | – | – | – | – | – | – | Nitrate Regulation of Glutamate synthetase gene (Arabidopsis plants): ↑; Nitrate Regulation of Glutamine synthetase (2) genes (Arabidopsis plants): ↑; Nitrate Regulation of MADs Box (2) genes (Arabidopsis plants): ↓; Nitrate Regulation of MYB transcription factor gene (Arabidopsis plants): ↑; Nitrate Regulation of Malate Dehydrogenase gene (Arabidopsis plants): ↑; Nitrate Regulation of Nitrate transporter gene (Arabidopsis plants): ↑; Nitrate Regulation of Phosphate transporter gene (Arabidopsis plants): ↑; Nitrate Regulation of Transaldolase gene (Arabidopsis plants): ↑; Nitrate Regulation of Transketolase gene (Arabidopsis plants): ↑
CNc1cnn(-c2cccc(C(F)(F)F)c2)c(=O)c1Cl [Norfluazon, Norflurazon] | – | – | – | – | – | – | – | – | – | – | – | – | stress related metabolites (Arabidopsis thaliana [3]): Only a few, if any
C[n+]1ccc(-c2cc[n+](C)cc2)cc1 [Paraquat] | 2 | 0 | −1 | 0 | 1 | 4 | 0 | 1 | 4 | 1 | 2 | rapid and widespread leaf necrosis | –
